pIC50, pKi: −log10 of the molar value.
Legend:
[1] = system: woodchuck hepatitis virus (WHV); assay: Woodchuck model of chronic HBV infection (WHV DNA in serum); format: in vivo, woodchucks (Marmota monax)
Experimental: The efficacy of L-dA, L-dT and L-dC against hepadnavirus infection in woodchucks (Marmota monax) chronically infected with woodchuck hepatitis virus (WHV) was determined. This animal model of HBV infection is widely accepted and has proven to be useful for the evaluation of antiviral agents directed against HBV. Experimental groups (n=3 animals/drug group, n=4 animals/control) [table] Drugs were administered by oral gavage once daily, and blood samples taken on days 0, 1, 3, 7, 14, 21, 28, and on post-treatment days +1, +3, +7, +14, +28 and +56. Assessment of the activity and toxicity was based on the reduction of WHV DNA in serum: dot-blot, quantative PCR.

human DNA polymerase α = molecular target: T1, human DNA polymerase α (Homo sapiens, UniProt P09884); assay: Inhibition of human DNA polymerase α (Dixon plot, calf thymus activated DNA, dATP); format: biochemical; details: calf thymus activated DNA as template-primer, dATP as substrate; read-out: DNA pol α Ki
T1 sequence (P09884 1-1462): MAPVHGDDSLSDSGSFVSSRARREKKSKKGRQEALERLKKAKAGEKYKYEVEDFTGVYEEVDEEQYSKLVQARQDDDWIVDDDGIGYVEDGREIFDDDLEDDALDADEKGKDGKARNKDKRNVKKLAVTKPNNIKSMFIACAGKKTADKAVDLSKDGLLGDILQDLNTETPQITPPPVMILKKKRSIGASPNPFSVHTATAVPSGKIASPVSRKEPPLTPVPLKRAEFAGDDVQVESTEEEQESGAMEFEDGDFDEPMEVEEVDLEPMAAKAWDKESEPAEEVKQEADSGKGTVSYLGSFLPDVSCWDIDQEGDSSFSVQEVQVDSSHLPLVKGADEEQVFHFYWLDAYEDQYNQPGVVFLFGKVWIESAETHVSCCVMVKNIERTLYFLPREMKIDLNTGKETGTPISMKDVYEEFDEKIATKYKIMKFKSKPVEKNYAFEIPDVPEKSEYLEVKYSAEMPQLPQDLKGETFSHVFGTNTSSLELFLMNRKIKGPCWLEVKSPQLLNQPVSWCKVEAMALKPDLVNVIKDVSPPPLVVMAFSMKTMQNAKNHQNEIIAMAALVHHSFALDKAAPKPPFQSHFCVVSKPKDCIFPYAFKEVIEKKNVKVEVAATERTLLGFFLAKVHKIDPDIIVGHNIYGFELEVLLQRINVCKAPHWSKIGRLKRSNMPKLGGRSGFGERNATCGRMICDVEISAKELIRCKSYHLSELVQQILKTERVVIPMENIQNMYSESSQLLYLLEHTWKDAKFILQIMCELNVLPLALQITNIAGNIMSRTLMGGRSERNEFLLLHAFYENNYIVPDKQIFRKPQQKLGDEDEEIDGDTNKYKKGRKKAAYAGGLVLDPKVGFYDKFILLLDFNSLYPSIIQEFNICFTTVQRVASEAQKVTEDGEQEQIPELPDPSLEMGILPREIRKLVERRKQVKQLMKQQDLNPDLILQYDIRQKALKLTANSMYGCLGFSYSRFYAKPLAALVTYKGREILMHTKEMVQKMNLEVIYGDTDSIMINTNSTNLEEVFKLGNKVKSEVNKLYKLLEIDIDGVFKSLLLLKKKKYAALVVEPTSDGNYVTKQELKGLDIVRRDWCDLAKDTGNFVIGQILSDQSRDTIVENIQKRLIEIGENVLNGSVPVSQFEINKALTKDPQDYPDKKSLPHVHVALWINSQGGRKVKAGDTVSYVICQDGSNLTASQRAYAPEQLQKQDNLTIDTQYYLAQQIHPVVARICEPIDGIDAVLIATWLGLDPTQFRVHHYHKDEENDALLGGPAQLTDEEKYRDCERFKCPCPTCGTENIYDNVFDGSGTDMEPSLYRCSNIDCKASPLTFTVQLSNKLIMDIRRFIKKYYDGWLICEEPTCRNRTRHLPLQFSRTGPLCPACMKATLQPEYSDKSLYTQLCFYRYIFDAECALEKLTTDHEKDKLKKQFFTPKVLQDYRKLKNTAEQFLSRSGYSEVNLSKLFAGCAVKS

human DNA polymerase β = human DNA polymerase β (Homo sapiens, UniProt P06746); assay: Inhibition of human DNA polymerase β (Dixon plot, calf thymus activated DNA, dATP); format: biochemical; details: calf thymus activated DNA as template-primer, dATP as substrate; read-out: DNA pol β Ki
human DNA polymerase γ = molecular target: T2, human DNA polymerase γ (Homo sapiens, UniProt P54098); assay: Inhibition of human DNA polymerase γ (Dixon plot, calf thymus activated DNA, dATP); format: biochemical; details: calf thymus activated DNA as template-primer, dATP as substrate; read-out: DNA pol γ Ki
T2 sequence (P54098 1-1239): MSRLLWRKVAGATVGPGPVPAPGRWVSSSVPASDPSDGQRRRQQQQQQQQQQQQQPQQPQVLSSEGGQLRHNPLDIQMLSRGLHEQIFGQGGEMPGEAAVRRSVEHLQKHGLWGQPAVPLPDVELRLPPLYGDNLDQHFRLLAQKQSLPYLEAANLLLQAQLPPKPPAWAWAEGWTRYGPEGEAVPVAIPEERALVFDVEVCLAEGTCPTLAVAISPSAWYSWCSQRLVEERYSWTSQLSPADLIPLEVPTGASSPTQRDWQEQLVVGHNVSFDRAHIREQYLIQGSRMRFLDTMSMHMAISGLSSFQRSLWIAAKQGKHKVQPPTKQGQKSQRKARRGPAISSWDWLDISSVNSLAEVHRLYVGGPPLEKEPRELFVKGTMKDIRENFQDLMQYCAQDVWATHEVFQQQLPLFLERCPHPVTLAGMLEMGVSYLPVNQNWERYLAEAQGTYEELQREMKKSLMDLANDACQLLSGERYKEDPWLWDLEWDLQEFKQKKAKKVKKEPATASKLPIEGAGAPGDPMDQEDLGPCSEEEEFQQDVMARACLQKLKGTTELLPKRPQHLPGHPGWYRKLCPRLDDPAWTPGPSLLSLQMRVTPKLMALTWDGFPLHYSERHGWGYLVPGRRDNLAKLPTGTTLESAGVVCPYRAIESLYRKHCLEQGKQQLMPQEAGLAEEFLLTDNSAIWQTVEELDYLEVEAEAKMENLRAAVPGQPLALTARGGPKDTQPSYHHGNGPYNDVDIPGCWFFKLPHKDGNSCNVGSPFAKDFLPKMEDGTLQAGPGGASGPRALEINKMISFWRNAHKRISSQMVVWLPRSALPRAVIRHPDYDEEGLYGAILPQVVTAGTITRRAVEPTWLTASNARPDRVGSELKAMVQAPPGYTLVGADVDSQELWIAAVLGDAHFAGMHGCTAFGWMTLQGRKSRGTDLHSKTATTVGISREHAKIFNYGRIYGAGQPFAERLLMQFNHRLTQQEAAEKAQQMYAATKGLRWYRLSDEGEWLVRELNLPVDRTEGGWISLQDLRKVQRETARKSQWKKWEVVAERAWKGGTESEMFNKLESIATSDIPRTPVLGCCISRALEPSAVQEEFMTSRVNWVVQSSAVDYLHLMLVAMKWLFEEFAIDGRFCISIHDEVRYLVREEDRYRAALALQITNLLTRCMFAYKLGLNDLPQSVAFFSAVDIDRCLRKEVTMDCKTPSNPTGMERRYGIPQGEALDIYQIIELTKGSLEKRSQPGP

[2] = molecular target: woodchuck hepatitis virus (WHV) DNA polymerase (Woodchuck hepatitis B virus, UniProt P03160); assay: Inhibition of woodchuck hepatitis virus (WHV) DNA polymerase by triphosphates
Chain of woodchuck hepatitis virus (WHV) DNA polymerase (P03160 whole entry): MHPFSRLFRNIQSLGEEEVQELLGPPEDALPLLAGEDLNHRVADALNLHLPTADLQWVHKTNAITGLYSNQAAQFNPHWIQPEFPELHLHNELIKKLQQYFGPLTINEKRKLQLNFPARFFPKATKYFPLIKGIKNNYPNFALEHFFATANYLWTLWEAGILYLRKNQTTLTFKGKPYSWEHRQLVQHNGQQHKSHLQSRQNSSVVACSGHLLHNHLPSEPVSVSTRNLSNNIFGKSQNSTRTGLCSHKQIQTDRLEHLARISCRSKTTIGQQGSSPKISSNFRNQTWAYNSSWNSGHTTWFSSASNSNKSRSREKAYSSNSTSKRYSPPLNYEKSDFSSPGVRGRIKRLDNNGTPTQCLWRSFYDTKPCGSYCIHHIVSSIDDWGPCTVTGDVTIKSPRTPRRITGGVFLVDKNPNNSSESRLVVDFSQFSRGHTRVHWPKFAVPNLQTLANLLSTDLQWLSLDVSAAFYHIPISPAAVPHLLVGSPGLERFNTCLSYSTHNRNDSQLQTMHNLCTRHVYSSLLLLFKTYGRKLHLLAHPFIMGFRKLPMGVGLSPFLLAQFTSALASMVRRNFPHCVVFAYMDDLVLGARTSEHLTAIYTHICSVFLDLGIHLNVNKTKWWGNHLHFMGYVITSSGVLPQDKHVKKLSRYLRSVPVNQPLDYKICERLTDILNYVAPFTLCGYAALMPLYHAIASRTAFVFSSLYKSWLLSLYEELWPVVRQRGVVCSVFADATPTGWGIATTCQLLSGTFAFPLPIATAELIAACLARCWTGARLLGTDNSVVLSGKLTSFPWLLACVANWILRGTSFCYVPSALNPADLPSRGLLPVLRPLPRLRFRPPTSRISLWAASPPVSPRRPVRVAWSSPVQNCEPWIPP

SMILES	activity compared with 3TC (lamivudine) [1]	viral load reduced to (level) [1]	viral rebound after withdrawal ([1]; post-treatment)	pKi (human DNA polymerase α)	pKi (human DNA polymerase β)	pKi (human DNA polymerase γ)	pIC50 [2]
Cc1cn([C@@H]2C[C@@H](O)[C@H](CO)O2)c(=O)[nH]c1=O [β-L-dT, 2′-Deoxy-β-L-Thymidine]	more active than 3TC (lamivudine)	undetectable	not detected for at least two weeks	–	–	–	–
Cc1cn([C@@H]2C[C@@H](O)[C@H](COP(=O)(O)OP(=O)(O)OP(=O)(O)O)O2)c(=O)[nH]c1=O [β-L-dT-TP]	–	–	–	< 4.00	< 4.00	< 4.00	6.47
Nc1ccn([C@@H]2C[C@@H](O)[C@H](CO)O2)c(=O)n1 [β-L-dC, 2′-Deoxy-β-L-cytidine]	more active than 3TC (lamivudine)	nearly undetectable	–	–	–	–	–
Nc1ncnc2c1ncn2[C@@H]1C[C@@H](O)[C@H](COP(=O)(O)OP(=O)(O)OP(=O)(O)O)O1 [β-L-dA-TP]	–	–	–	< 4.00	< 4.00	–	5.64
O=c1ccn([C@@H]2C[C@@H](O)[C@H](COP(=O)(O)OP(=O)(O)OP(=O)(O)O)O2)c(=O)[nH]1 [β-L-dU-TP]	–	–	–	< 4.00	< 4.00	< 4.00	5.10
Nc1ccn([C@@H]2C[C@@H](O)[C@H](COP(=O)(O)OP(=O)(O)OP(=O)(O)O)O2)c(=O)n1 [β-L-dC-TP]	–	–	–	< 4.00	< 4.00	< 4.00	5.70
Nc1ncnc2c1ncn2[C@@H]1C[C@@H](O)[C@H](CO)O1 [β-L-dA, 2′-Deoxy-β-L-adenosine]	more active than 3TC (lamivudine)	nearly undetectable	–	–	–	–	–

Reference: US6566344B1, “β-L-2′-deoxy-nucleosides for the treatment of hepatitis B” (priority 1998, dated 2003)
